Measurements reported in publication PMC8697972, “New Auranofin Analogs with Antibacterial Properties against Burkholderia Clinical Isolates” (Antibiotics, 2021).
Converted amounts (≈) assume the structure as drawn. Like-named read-outs stand apart in the source and are kept apart here.

Test system: B. cenocepacia K56-2
Assay: Multistep resistance by serial passaging at 0.5× MIC
Format: cell-based, Burkholderia cenocepacia
Details: for MIC: Burkholderia cenocepacia; for change of MIC on serial passaging: 24 days of passaging at 0.5× MIC
[1] = K562, 0 h, day 0 of serial passaging, read-out: starting MIC in multistep resistance assay
[2] = K562, after 12–16 days of passaging at 0.5× MIC, read-out: MIC reached on serial passaging

Question: With `C[C@H]1c2cccc(O)c2C(=O)C2=C(O)[C@]3(O)C(=O)C(C(N)=O)=C(O)[C@@H](N(C)C)[C@@H]3[C@@H](O)[C@@H]21` [DOX, doxycycline, reference compound] as the molecule, how does the MIC [1] read?
Answer: 4 µg/mL (≈ 9 µM)

Question: And the MIC [2]?
Answer: 256 µg/mL (≈ 576 µM)

Question: With `C[C@@H](O)[C@H]1C(=O)N2C(C(=O)O)=C(S[C@@H]3CN[C@H](C(=O)N(C)C)C3)[C@H](C)[C@H]12` [MEM, meropenem, reference compound] as the molecule, how does the MIC [1] read?
Answer: 16 µg/mL (≈ 41.7 µM)

Question: What about the MIC [2] of the same molecule?
Answer: 256 µg/mL (≈ 668 µM)

Question: `C[PH](C)(C)[Au][S]CCO` [MS-40, 2-mercaptoethanolatotrimethylphosphine gold(I)] was tested. Which “change of MIC on serial passaging” value did it give?
Answer: no apparent increase

Question: With `CC(O)C[S][Au-][P+](C)(C)C` (stereo not drawn) [MS-40S] as the molecule, how does the “change of MIC on serial passaging” value read?
Answer: no apparent increase
